Source: patent US20210338558A1, “USE OF COLLAGEN BINDING DOMAINS TO DELIVER PRODUCTS TO SKIN” (Fabius Biotechnology, priority 2018, published 2021)
Where no end group is shown, it is not given here.

How the values were obtained:
native collagen = assay: binding of growth factors carrying the collagen binding decapeptide to collagen
Text: (§1) Studies with targeted peptides used the decapeptide sequence: Trp-Arg-Glu-Pro-Ser-Phe-Met-Ala-Leu-Ser (WREPSFMALS) (SEQ ID NO: 1). It was linked to either TGF-β or BMP-3 at the C-terminus of the corresponding growth factors.
Polypeptide growth factors, of the TGF-β family, and others, were constructed to contain, at the C-terminal end, a decapeptide with high affinity for collagen (Andrades, Nimni et al. 1996; Tuan, Cheung et al. 1996; Andrades, Han et al. 1999; Hall, Han et al. 2001; Han, Perelman et al. 2002; Romijn, Westein et al. 2003). This was intended to provide concentration of the growth factors where needed for maximum efficacy. In compositions and methods according to the present invention, this effect can be used for delivery of the skin care agent or cosmeceutical to the skin.
This is compared to the behavior of TGF-β without the collagen binding domain, which has poor affinity for collagen.

[1] = biological activity of the covalently linked growth factors; details: growth factor linked at its C-terminus to decapeptide WREPSFMALS
Text: as §1

collagen = details: by binding competition, on a molar basis, relative to intact VWF; cited from earlier work

For “TGF-β with a collagen binding domain: TGF-β linked at the C-terminus to the decapeptide WREPSFMALS; genetically engineered fusion protein (FIG. 3)”, the “dissociation of binding to collagen” value (native collagen; FIG. 4, urea) was “requires a high concentration of urea for dissociation”, the “binding affinity towards native collagen” value (native collagen; growth factor linked at its C-terminus to decapeptide WREPSFMALS) was “strong binding affinity” and the “biological activities retained after linkage” value [1] was “retained significant biological activities”.

In the case of WREPSFMALS [SEQ ID NO: 1], the “binds more efficiently to collagen than the intact VWF” value (collagen) is given as 20 times.

For “TGF-β without the collagen binding domain: TGF-β lacking the collagen binding domain, comparator in FIG. 4 [reference compound]”, the affinity for collagen (native collagen; FIG. 4) was “poor affinity”.

In the case of WREPSFCALS [SEQ ID NO: 2], the “binds more efficiently to collagen than the intact VWF” value (collagen) is given as 20 times.
